Results as given in US4645779A, “Dialkylaminoalkoxybenzylalcohol derivatives, process for their preparation and pharmaceutical compositions containing them” (Richter Gedeon Vegyeszeti Gyar Rt, priority 1982, dated 1987).

Columns and labels:
[1] = Acute toxicity, single oral dose, 14 days observation; assay type: in vivo, rat; conditions: rat, in vivo, po, 500 mg./kg. p.o., n=10, read-out: Perished animals (%)
Experimental: (§1) The acute toxicity of the compounds provided by the invention was determined on Wistar rats of both sexes, each weighing 160 to 180 g., which had been treated with a single 500 mg./kg. dose of the test compounds, orally. […] In Table 3 the percentage of the perished animals is given.

[2] = tested on: Hann.-Wistar rats; assay: Effect on ethanolic narcosis period (righting reflex); assay type: in vivo, rat; conditions: 1 h before ethanol 3.5 g./kg. i.p., control = 100 ± 4.0, n=10
Experimental: The effect of the compounds according to the invention on ethanolic narcosis period was tested on Hann.-Wistar rats of both sexes, weighing 160 to 180 g. each. The animals were fasted for 16 hours prior to treatment. Groups of ten were then treated with various doses of the compounds of the formula (I) orally. One hour after treatment the animals were given a 3.5 g./kg. dose of ethanol, intraperitoneally. The narcosis period of the animals was measured from the elapse of the righting reflex until a spontaneous correction of the body position. The average of the narcosis period and the standard error were calculated, and the results are given in percentage of the control in Table 1. Abbreviations: x±S.E.=means value ± standard error n=number of animals The control group was treated with a placebo and a […]. dose of ethanol. Narcosis period of the control: 88.5±3.54x±S.E. minutes

[3] = tested on: BALB/c mice; assay: Effect on ethanolic locomotoric hyperactivity / locomotor activity (Animex BSE motimeter); assay type: in vivo, mouse; conditions: n=15
Experimental: The effect of the compounds provided by the invention on ethanolic locomotoric hyperactivity was tested on BALB/c mice of both sexes, each weighing 16 to 18 g. The test materials were administered to groups of 15 in a 40 mg./kg. oral dose, one hour before administering a placebo orally or a 2 g./kg. dose of ethanol intraperitoneally. The control animals were treated with a placebo. The locomotor activity of the animals was measured for two hours, using an Animex BSE motimeter. The results are shown as a Table 2, in percentage of the control.
°Control (treated with placebo): ^-x ± S.E. = 3118.3 ±
305.6 total motion/2 hours

[4] = tested on: Wistar rats; assay: Acute toxicity, single oral dose, 14 days observation; assay type: in vivo, rat; conditions: 500 mg./kg. p.o., n=10
Experimental: as §1

[5] = in vivo; cited from earlier work
[6] = in vivo; cited from earlier work; remark: listed apart in the source
[7] = tested on: mice; conditions: cited from earlier work

For `CCCN(CCC)CCCOc1ccc(C(O)(CC)c2ccccc2OC)cc1` (stereo not drawn) [A, α-ethyl-α-(2-methoxyphenyl)-4-[3-(di-n-propylamino)-propoxy]-benzylalcohol], the mortality at 336 h [1] was 0%, the “Ethanolic narcosis period, control ± S.E. %” value ([2]; 5.0 mg./kg. orally) was 60 ± 10.1% and the “Ethanolic narcosis period, control ± S.E. %” value ([2]; 10.0 mg./kg. orally) was 50 ± 6.9%.
For `CCCN(CCC)CCCOc1ccc(C(O)(CC)c2cccc(Cl)c2)cc1` (stereo not drawn) [B, α-ethyl-α-(3-chlorophenyl)-4-[3-(di-n-propylamino)-propoxy]-benzylalcohol], the mortality at 336 h [1] was 0%, the “Ethanolic narcosis period, control ± S.E. %” value ([2]; 0.3 mg./kg. orally) was 65 ± 6.8% and the “Ethanolic narcosis period, control ± S.E. %” value ([2]; 1.0 mg./kg. orally) was 53 ± 4.7%. For the same compound, the “Ethanolic narcosis period, control ± S.E. %” value ([2]; 10.0 mg./kg. orally) was 49 ± 2.8%, the “Locomotor activity total motion/2 hour (%)” value ([3]; B + ethanol 2000 mg./kg. i.p., 40 mg./kg. oral 1 h before, control = 100 ± 9.8, ethanol + placebo = 170 ± 11.8) was 70 ± 8.4% and the “Locomotor activity total motion/2 hour (%)” value ([3]; B + placebo (no ethanol), 40 mg./kg. oral, control = 100 ± 9.8) was 108 ± 13.3%.
For `CCC(O)(c1ccc(OCCN(C(C)C)C(C)C)cc1)c1ccccc1C(F)(F)F` (stereo not drawn) [Compound C, α-ethyl-α-(2-trifluoromethylphenyl)-4-[3-(di-isopropylamino)-ethoxy]-benzylalcohol], the “Perished animals (%)” value [4] was 0% and the “Ethanolic narcosis period, control ± S.E. %” value ([2]; 40.0 mg./kg. orally) was 62 ± 5.1%.
For `N[C@@H](CS)C(=O)O` [L-cysteine, reference compound], the mortality at 336 h [1] is given as 0%, the “Ethanolic narcosis period, control ± S.E. %” value ([2]; 500.0 mg./kg. orally) is given as 63 ± 4.2% and the “alcoholic intoxication, i.e. narcosis period (in words)” value [5] is given as “shortened”.
For `CC(N)Cc1ccccc1` (centres unmarked) [amphetamine], the “motoric incoordination (ataxia) (in words)” value [6] is listed as “prolong the motoric incoordination (ataxia)” and the “narcotizing effect of alcohol (in words)” value [5] is listed as “moderate the narcotizing effect of alcohol”.
In the case of `Cn1c(=O)c2c(ncn2C)n(C)c1=O` [caffeine], the “motoric incoordination (ataxia) (in words)” value [6] is given as “prolong the motoric incoordination (ataxia)” and the “narcotizing effect of alcohol (in words)” value [5] is given as “moderate the narcotizing effect of alcohol”.
For `CC(N)(Cc1ccc(O)cc1)C(=O)O` (stereo not drawn) [α-methyl-paratyrosine], the “spontaneous locomotoric activity (in words)” value ([7]; in the effective dose range) is listed as “a decrease of the spontaneous locomotoric activity” and the “ethanolic locomotoric hyperactivity (in words)” value ([7]; mice) is listed as “normalizes the ethanolic locomotoric hyperactivity”.
